Laboratory results: ChEMBL document CHEMBL1944554, “Structure-activity relationships for the interaction of 5,10-dihydroindeno[1,2-b]indole derivatives with human and bovine carbonic anhydrase isoforms I, II, III, IV and VI” (Eur J Med Chem, 2012)

Legend:
Carbonic anhydrase 3 = target: T1, Carbonic anhydrase 3 (Bos taurus, UniProt Q3SZX4); assay: Inhibition of bovine carbonic anhydrase 3 using 4-nitrophenylacetate as substrate after 3 mins using spectrophotometry by Lineweaver-Burk plot analysis
T1 sequence (Q3SZX4 whole entry): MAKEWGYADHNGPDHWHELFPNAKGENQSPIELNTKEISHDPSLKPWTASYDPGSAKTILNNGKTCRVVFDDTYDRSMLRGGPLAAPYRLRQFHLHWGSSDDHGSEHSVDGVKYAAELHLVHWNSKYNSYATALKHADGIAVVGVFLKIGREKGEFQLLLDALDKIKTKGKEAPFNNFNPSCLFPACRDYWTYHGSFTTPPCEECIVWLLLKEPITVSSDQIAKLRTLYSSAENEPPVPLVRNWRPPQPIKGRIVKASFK

Carbonic anhydrase 6 = Carbonic anhydrase 6 (Homo sapiens, UniProt P23280); assay: Inhibition of human carbonic anhydrase 6 using 4-nitrophenylacetate as substrate after 3 mins using spectrophotometry by Lineweaver-Burk plot analysis
Sequence of Carbonic anhydrase 6 (P23280 whole entry): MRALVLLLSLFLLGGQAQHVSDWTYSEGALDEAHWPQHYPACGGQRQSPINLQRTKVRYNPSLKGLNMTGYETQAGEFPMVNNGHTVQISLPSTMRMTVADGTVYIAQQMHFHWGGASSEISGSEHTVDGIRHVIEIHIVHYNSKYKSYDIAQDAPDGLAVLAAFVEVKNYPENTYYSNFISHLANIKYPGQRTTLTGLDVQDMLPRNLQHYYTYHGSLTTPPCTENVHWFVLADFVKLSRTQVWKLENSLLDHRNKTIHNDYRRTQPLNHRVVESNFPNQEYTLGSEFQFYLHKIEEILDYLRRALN

Carbonic anhydrase 1 = Carbonic anhydrase 1 (Homo sapiens, UniProt P00915); assay: Inhibition of human carbonic anhydrase 1 using 4-nitrophenylacetate as substrate after 3 mins using spectrophotometry by Lineweaver-Burk plot analysis
Sequence of Carbonic anhydrase 1 (P00915 whole entry): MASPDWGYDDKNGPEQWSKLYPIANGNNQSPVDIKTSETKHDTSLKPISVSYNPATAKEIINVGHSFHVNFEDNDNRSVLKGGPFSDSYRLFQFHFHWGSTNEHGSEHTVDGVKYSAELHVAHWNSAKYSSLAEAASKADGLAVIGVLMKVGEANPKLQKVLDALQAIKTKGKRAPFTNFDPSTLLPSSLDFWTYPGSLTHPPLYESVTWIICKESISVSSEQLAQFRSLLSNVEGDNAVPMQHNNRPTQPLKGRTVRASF

Carbonic anhydrase 4 = Carbonic anhydrase 4 (Homo sapiens, UniProt P22748); assay: Inhibition of human carbonic anhydrase 4 using 4-nitrophenylacetate as substrate after 3 mins using spectrophotometry by Lineweaver-Burk plot analysis
Sequence of Carbonic anhydrase 4 (P22748 whole entry): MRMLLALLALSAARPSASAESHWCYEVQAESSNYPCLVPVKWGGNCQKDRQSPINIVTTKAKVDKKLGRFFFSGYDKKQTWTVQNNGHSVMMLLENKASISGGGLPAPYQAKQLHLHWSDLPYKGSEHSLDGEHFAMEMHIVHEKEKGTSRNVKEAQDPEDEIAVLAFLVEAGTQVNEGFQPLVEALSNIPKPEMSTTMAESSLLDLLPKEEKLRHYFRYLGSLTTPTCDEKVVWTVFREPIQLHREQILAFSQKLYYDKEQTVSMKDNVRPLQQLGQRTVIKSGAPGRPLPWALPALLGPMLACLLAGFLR

Carbonic anhydrase 2 = Carbonic anhydrase 2 (Homo sapiens, UniProt P00918); assay: Inhibition of human carbonic anhydrase 2 using 4-nitrophenylacetate as substrate after 3 mins using spectrophotometry by Lineweaver-Burk plot analysis

Row | Structure (SMILES) | Ki (Carbonic anhydrase 3) [µM] | also measured
1 | COc1cc2c(c(OC)c1)-c1[nH]c3ccccc3c1C2 | 14.3 | 
2 | Oc1ccc(O)c2c1Cc1c-2[nH]c2ccccc12 | 4.34 | 
3 | COc1ccc(OC)c2c1Cc1c-2[nH]c2ccccc12 | 11.2 | 
4 | Oc1cccc2c1-c1[nH]c3ccccc3c1C2 | 9.62 | 
5 | Oc1ccc2c(c1O)Cc1c-2[nH]c2ccccc12 | 2.13 | 
6 | COc1cccc2c1Cc1c-2[nH]c2ccccc12 | 16.3 | 
7 | Oc1cc(O)c2c(c1)Cc1c-2[nH]c2ccccc12 | 4.63 | 
8 | COc1ccc2c(c1OC)Cc1c-2[nH]c2ccccc12 | 10.3 | 
9 | c1ccc2c3c([nH]c2c1)-c1cc2c(cc1C3)OCO2 | 12.7 | 
10 | Oc1cccc2c1Cc1c-2[nH]c2ccccc12 | 8.84 | 
11 | COc1cc2c(cc1OC)-c1[nH]c3ccccc3c1C2 | 15.8 | 
12 | COc1ccccc1OC [1,2-DIMETHOXYBENZENE] | 4.24 | 
13 | Oc1ccccc1O [CATECHOL] | 3.48 | 
14 | C[C@]12CC[C@@H]3c4ccc(OS(N)(=O)=O)cc4CC[C@H]3[C@@H]1CCC2=O [EMATE] | 12.4 | Ki (Carbonic anhydrase 6): 1.86 µM; Ki (Carbonic anhydrase 1): 12.3 µM; Ki (Carbonic anhydrase 4): 1.04 µM
15 | CCOc1ccc2nc(S(N)(=O)=O)sc2c1 [ETHOXZOLAMIDE] | 9.44 | 
16 | c1ccc2[nH]ccc2c1 [INDOLE] | 17.6 | Ki (Carbonic anhydrase 6): 3.63 µM; Ki (Carbonic anhydrase 1): 27.4 µM; Ki (Carbonic anhydrase 2): 32.5 µM; Ki (Carbonic anhydrase 4): 2.33 µM
17 | NS(=O)(=O)Cc1noc2ccccc12 [ZONISAMIDE] | 8.51 | 

Now from value to compound, other results behind:

Row | Ki (Carbonic anhydrase 3) [µM] | Structure (SMILES) | also measured
18 | 15.6 | COc1ccc2c(c1)-c1[nH]c3ccccc3c1C2 | 
19 | 8.51 | Brc1ccc2c(c1)Cc1c-2[nH]c2ccccc12 | 
20 | 8.63 | Fc1ccc2c(c1)Cc1c-2[nH]c2ccccc12 | 
21 | 9.08 | Oc1ccc2c(c1)Cc1c-2[nH]c2ccccc12 | 
22 | 5.17 | Oc1cc2c(cc1O)-c1[nH]c3ccccc3c1C2 | 
23 | 8.72 | Clc1ccc2c(c1)Cc1c-2[nH]c2ccccc12 | 
24 | 17.8 | c1ccc2c(c1)Cc1c-2[nH]c2ccccc12 | 
25 | 14.9 | COc1ccc2c(c1)Cc1c-2[nH]c2ccccc12 | 
26 | 9.42 | Oc1ccc2c(c1)-c1[nH]c3ccccc3c1C2 | 
